Where two headings read alike, the source gives them in different places. Residues, ends and D or L forms follow the SMILES beside them.
Legend:
α7-nAChR [1] = molecular target: T1, α7-nAChR (Homo sapiens, UniProt P36544); assay: Patch clamp of ACh-induced currents, HEK293 cells stably expressing nAChR α7/RIC3; format: cell-based; conditions: for %Inhibition of α7-nAChR: peptide 200 nM, relative to currents induced by 9 μM ACh
C57BL6 mice = assay: Mortality of C57BL6 mice after a single tail vein injection; format: in vivo
Cynologous monkey = assay: GLP acute toxicology study, iv infusion; format: in vivo
Description: The acute toxicology study of CN-105 was carried out at the facility of CTI Biotechnology (China) in accordance with GLP guidelines of the National Medical Product Administration (NMPA) of China. Briefly, six Cynologous (Cyn) monkeys were assigned to three dosing groups (n = 2/group, M:F= 1:1). The animals were given an iv. infusion of saline (Group 1), 25 mg/kg CN-105 (Group 2) or 100 mg/kg CN-105 (Group 3) twice a day. The infusion volume was 20mL/kg, while the infusion rate was 30min. Forty SD rats were assigned to four dosing groups (n = 10/group, M:F= 1:1) and were given an iv. injection of saline (Group 1), 15 mg/kg CN-105 (Group 2), 30 mg/kg CN-105 (Group 3) or 45 mg/kg CN-105 (Group 4) twice a day. The infusion volume was 5mL/kg, while the infusion rate was 10min. Animals were monitored for a variety of behavioral, physiological, histological and serological endpoints.

α1β1δε-nAChR = molecular target: T2, α1β1δε-nAChR (Homo sapiens, UniProt P02708+P11230+Q04844+Q07001); assay: Electrophysiology of oocytes injected with nAChR α, β, δ and ε cRNA; format: cell-based
T2 construct: expressed in transfected cells
T2 sequence (P02708 21-457): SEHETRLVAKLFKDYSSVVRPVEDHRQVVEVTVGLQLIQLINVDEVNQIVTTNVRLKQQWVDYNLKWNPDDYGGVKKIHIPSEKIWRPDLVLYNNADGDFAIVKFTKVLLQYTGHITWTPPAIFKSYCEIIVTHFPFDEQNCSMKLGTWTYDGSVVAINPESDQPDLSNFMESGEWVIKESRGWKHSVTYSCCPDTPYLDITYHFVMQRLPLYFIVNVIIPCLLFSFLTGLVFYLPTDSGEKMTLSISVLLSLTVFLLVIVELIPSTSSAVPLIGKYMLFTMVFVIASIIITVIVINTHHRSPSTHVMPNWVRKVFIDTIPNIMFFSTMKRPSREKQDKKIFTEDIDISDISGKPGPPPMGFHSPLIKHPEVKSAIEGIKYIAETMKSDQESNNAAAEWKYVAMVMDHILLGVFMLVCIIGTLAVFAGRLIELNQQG
T2 sequence (P11230 24-501): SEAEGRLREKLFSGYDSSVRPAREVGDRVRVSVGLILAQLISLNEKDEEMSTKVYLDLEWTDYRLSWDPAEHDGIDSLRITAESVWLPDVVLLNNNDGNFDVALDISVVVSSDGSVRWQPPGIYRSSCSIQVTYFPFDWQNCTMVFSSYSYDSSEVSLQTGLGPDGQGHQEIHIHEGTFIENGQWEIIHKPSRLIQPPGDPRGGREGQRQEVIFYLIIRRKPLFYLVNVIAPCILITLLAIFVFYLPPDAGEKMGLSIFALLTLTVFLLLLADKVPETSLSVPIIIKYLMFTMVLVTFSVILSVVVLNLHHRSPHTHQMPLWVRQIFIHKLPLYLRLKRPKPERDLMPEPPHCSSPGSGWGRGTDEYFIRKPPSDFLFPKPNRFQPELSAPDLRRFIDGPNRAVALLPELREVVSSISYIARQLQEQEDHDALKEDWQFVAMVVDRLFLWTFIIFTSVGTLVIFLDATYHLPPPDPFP
T2 sequence (Q07001 22-517): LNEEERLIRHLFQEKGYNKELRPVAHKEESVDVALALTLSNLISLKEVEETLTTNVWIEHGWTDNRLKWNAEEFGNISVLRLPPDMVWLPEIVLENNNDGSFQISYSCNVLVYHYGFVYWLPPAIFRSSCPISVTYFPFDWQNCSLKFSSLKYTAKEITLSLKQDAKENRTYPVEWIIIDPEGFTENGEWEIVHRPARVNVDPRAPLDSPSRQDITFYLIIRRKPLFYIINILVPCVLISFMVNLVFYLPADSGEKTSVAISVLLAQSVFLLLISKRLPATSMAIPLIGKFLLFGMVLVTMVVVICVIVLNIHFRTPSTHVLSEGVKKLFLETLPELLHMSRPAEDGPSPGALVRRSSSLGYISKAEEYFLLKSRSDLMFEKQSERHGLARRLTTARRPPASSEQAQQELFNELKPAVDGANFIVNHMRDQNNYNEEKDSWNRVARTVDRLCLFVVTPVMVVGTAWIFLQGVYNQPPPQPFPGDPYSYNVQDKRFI
T2 sequence (Q04844 21-493): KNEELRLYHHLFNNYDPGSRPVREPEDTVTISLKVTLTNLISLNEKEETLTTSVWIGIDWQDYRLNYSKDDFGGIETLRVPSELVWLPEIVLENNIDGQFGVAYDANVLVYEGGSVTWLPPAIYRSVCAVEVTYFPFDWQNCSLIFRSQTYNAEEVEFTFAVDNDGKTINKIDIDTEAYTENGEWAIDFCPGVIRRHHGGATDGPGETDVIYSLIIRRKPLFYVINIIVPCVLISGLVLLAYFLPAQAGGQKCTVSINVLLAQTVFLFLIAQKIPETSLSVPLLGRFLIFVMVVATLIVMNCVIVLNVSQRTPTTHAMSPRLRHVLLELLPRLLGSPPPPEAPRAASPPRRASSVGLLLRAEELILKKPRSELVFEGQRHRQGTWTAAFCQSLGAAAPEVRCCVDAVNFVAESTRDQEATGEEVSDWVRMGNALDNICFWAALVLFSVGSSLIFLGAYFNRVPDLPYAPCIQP

α4β2-nAChR = molecular target: T3, α4β2-nAChR (Homo sapiens, UniProt P17787+P43681); assay: Patch clamp of HEK293 cells transiently expressing nAChR α4β2; format: cell-based; conditions: four-parameter logistic fit; read-out: IC50, inhibition of α4β2-nAChR
T3 construct: expressed in transfected cells; host or cells: HEK293 (transient)
T3 sequence (P43681 29-627 limits assumed): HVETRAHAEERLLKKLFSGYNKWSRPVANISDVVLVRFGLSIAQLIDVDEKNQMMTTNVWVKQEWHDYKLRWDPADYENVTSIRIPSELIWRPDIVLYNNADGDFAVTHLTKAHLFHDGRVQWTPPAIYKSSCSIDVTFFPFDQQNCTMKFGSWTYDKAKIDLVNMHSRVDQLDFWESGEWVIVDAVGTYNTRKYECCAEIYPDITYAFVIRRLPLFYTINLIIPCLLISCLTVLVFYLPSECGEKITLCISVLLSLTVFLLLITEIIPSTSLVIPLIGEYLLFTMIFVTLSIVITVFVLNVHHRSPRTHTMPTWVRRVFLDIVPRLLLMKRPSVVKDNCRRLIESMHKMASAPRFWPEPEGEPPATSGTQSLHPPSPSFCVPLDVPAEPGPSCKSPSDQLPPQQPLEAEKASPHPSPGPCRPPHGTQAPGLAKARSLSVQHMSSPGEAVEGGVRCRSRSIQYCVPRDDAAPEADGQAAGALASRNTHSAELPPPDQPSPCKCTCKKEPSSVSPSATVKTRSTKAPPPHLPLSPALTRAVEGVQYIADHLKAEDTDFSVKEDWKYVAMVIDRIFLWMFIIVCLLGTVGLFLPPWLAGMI
T3 sequence (P17787 26-502): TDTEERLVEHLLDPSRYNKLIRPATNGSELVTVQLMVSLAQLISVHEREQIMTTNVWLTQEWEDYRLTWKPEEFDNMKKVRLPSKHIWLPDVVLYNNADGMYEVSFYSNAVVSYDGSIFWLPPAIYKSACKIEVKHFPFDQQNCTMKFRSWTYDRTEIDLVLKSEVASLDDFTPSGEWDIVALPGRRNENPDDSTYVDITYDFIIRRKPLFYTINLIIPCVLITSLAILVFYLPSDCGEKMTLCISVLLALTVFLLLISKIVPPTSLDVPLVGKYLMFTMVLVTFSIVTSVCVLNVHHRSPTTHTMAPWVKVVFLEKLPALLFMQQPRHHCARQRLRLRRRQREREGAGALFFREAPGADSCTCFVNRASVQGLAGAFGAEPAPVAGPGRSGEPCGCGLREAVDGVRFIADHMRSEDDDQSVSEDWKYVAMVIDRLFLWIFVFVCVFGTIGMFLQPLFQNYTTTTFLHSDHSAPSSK
Description: The patch clamp recording was performed on the third or fourth day after transfection based on the expression level of co-transfected GFP gene. Detailed description of the transfection procedures can be found in the Supporting information.
nAChR α4β2: HEK293 cells were seeded on poly-D-lysine-coated coverslips placed in a 24-well plate at a density of 8×10^3 cells per well. Cells were transfected with nAChR α4/nAChR β2/GFP with the ratio 2:2:1. The X-tremeGENE HP DNA (Roche) was used for transfection, and the ratio of plasmid to transfection reagent was 1 μg: 2 μL.

[2] = tested on: rat hippocampal brain slices; assay: EPSC recording (evoked, spontaneous, miniature) in hippocampal brain slices; format: cell-based
AMPA receptor = assay: Glutamate-induced currents of AMPA receptor in primary hippocampal neuronal cultures; format: cell-based; conditions: primary rat hippocampal neuronal cultures
Description: Rat primary neuronal culture: Primary neuron cultures were prepared from newborn rats. A mixed culture of hippocampal, cortical and thalamic neurons was used for calcium imaging assays. For patch clamp studies, hippocampal neurons from the CA1 region were extracted. The trypsinized brain tissue was incubated at 37°C for 20 minutes before the removal of the enzyme. The cells were washed three times with PBS and suspended with fresh media before being plated on poly-D-lysine-coated coverslips. After 4 h, the media was replaced by Neurobasal+B27+L-Glu (Thermo scientific, USA). Half of the culture medium was changed after 24 h before switched to a 72-hr medium change routine.
(§1) Figure S5. Amperograms of CN-105's effect on GluR (AMPA-R) in primary rat hippocampal neuronal cultures (Left) and on GluN (NMDA-R) in a culture of HEK293 cells stably expressing NMDA receptor (Right).

NMDA receptor = assay: Glutamate-induced currents in HEK293 cells stably expressing NMDA receptor; format: cell-based
Description: as §1

[3] = tested on: SD rats, transient ischemic stroke; assay: Transient middle cerebral artery occlusion (t-MCAO) model; format: in vivo, rat; conditions: Day 8; for Infarct volume: rat t-MCAO
Description: Eighty-three Sprague-Dawley (SD) rats were randomly divided into six groups with both sexes as follows: 1) sham group (n=8), 2) vehicle group (n=15), 3) 0.1 mg/kg CN105 (n=15), 4) 0.2 mg/kg CN105 (n=15), 5) 0.4 mg/kg CN-105 (n=15), 6) 6mg/kg edaravone (n=15). Ischemic insult was introduced based on pre-established protocol. Briefly, rats were placed supine under anesthesia, and then the left common carotid arteries were exposed under sterile conditions. A suture was gently inserted into the internal carotid artery through the external carotid artery until the origin of the middle cerebral artery was occluded. The suture thread was removed 90 min after the ischemia, allowing restoration of the blood supply. Animals in the sham group were exposed of the left common carotid artery under anesthesia without ischemic occlusion. A single dose of CN-105 or edaravone were administered intravenously (iv.) 30min after reperfusion. The injection volume was 5mL/kg, given in 2 min. Animals in each group were euthanized at the end of the experiment. Brains were fixed in 10% formalin. The 3 mm-thick coronal brain sections were scanned and imaged to measure the percentage of viable and infarction brain tissue to calculate the percentage of cerebral infarction volume.

[4] = rat, in vivo, iv
[5] = monkey, in vivo, iv
in vivo [6] = conditions: both, SD, rat, iv
in vivo [7] = conditions: both, monkey, iv
α7-nAChR [8] = molecular target: T1, α7-nAChR

T1 sequence (P36544 23-502): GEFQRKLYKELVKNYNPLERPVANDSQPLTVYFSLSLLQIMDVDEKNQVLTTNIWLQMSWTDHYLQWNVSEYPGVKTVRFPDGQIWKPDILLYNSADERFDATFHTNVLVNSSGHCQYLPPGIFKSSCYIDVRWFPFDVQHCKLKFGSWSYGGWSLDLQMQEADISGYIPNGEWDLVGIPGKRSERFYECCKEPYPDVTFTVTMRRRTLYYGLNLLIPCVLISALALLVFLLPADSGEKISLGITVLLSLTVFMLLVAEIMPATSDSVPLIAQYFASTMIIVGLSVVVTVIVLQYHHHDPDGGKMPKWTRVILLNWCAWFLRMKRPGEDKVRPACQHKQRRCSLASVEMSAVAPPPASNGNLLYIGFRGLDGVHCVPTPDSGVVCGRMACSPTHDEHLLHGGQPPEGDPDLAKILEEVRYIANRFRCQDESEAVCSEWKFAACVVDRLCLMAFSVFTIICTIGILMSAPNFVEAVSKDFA

CC(=O)N[C@@H](C)C(=O)N[C@@H](CO)C(=O)N[C@@H](CCCNC(=N)N)C(=O)N[C@@H](CCCNC(=N)N)C(=O)N[C@@H](CCCNC(=N)N)C(N)=O [Ac-ASRRR-NH2] (Ac-ASRRR-NH2)
%Inhibition of α7-nAChR (α7-nAChR [1]): 7.4%

CSCC[C@H](NC(C)=O)C(=O)N[C@@H](CO)C(=O)N[C@@H](CCCNC(=N)N)C(=O)N[C@@H](CCCNC(=N)N)C(=O)N[C@@H](CCCNC(=N)N)C(N)=O [Ac-MSRRR-NH2] (Ac-MSRRR-NH2)
%Inhibition of α7-nAChR (α7-nAChR [1]): 38.3%

CC(=O)N[C@@H](CCCNC(=N)N)C(=O)N[C@@H](CO)C(=O)N[C@@H](CCCCN)C(=O)N[C@@H](CCCNC(=N)N)C(=O)N[C@@H](CCCNC(=N)N)C(N)=O [Ac-RSKRR-NH2] (Ac-RSKRR-NH2)
%Inhibition of α7-nAChR (α7-nAChR [1]): 9.3%

CC(=O)N[C@H](C(=O)N[C@@H](CS)C(=O)N[C@@H](CCCNC(=N)N)C(=O)N[C@@H](CCCNC(=N)N)C(=O)N[C@@H](CCCNC(=N)N)C(N)=O)C(C)C [Ac-VCRRR-NH2] (Ac-VCRRR-NH2)
%Inhibition of α7-nAChR (α7-nAChR [1]): 5.9%

CC(=O)N[C@H](C(=O)N[C@@H](CO)C(=O)N[C@@H](CCCCN)C(=O)N[C@@H](CCCCN)C(=O)N[C@@H](CCCNC(=N)N)C(N)=O)C(C)C [Ac-VSKKR-NH2] (Ac-VSKKR-NH2)
%Inhibition of α7-nAChR (α7-nAChR [1]): 48.9%

CC(=O)N[C@H](C(=O)N[C@@H](CO)C(=O)N[C@@H](CCCNC(=N)N)C(=O)N[C@@H](CCCNC(=N)N)C(=O)N[C@@H](CCCNC(=N)N)C(N)=O)C(C)C [CN-105, Ac-VSRRR-NH2] (Ac-VSRRR-NH2)
Observation after removal of isoflurane anaesthesia (C57BL6 mice; 50 mg/kg, intubated and mechanically ventilated): extended sedation
Symptoms at lethal dose (C57BL6 mice; C57BL6 mice, 25 mg/kg tail vein): spasm and respiratory suppression
Mortality under intubation and mechanical ventilation (C57BL6 mice; C57BL6 mice, 50 mg/kg, mechanical ventilation with isoflurane anaesthesia): not associated with mortality
LD80 (C57BL6 mice; C57BL6 mice, single tail vein injection, autonomous respiration): 25 mg/kg
Time of gradual recovery to normal activity (about two serum clearance half-lives) (Cynologous monkey; supratherapeutic dosing): ~4 h
Symptoms after supratherapeutic dosing (Cynologous monkey; supratherapeutic iv dosing): mydriasis and ptosis
Effect on ACh induced current (α7-nAChR [1]; 10 μM CN-105, HEK293 overexpressing α7-nAChR): strongly suppressed
IC50 (α7-nAChR [1]; four-parameter logistic fit, read-out: IC50, inhibition of α7-nAChR): 31 nM
%Inhibition of α7-nAChR (α7-nAChR [1]): 61.4%
Voltage of maximal inhibition (α7-nAChR [1]; voltage dependency, CN-105 40 nM): –80 mV
IC50 (α1β1δε-nAChR): 2100 nM
IC50 (α4β2-nAChR): 500 nM
Spontaneous EPSC (sEPSC) frequency ([2]; rat hippocampal brain slice, CN-105 200 μM as printed in Figure 3 legend): attenuation
Evoked EPSC mediated by NMDA receptor versus control ([2]; rat hippocampal brain slices, holding +50 mV): significantly lower
Evoked EPSC mediated by AMPA receptor versus control ([2]; rat hippocampal brain slices, holding -70 mV): significantly lower
NMDA receptor-mediated EPSC with tetrodotoxin (mEPSC) ([2]; tetrodotoxin added to block all AP firings): no longer able to affect
Direct effect on glutamate-induced currents, AMPA receptor (AMPA receptor): did not directly inhibit
Direct effect on glutamate-induced currents, NMDA receptor (NMDA receptor): did not directly inhibit
Density of viable neurons (NeuN+ cells) ([3]; 1 mm2 area at infarct margin): higher
Number of β3-GABAAR+ cells at infarct margin ([3]; 1 mm2 area): unaffected
Density of α7-nAChR+ cells at infarct margin versus vehicle ([3]; primary somatosensory cortex, 1 mm2 area): higher density
Infarct volume ([3]; 0.1 to 0.4 mg/kg single iv 30 min after reperfusion): significantly reduced
Kel ([4]; 0.1 mg/kg): 2.09 ± 0.258 h⁻¹
Kel ([4]; 0.3 mg/kg): 1.73 ± 0.203 h⁻¹
Kel ([4]; 1 mg/kg): 1.13 ± 0.106 h⁻¹
Kel ([4]; 3 mg/kg): 0.823 ± 0.204 h⁻¹
Kel ([5]; 0.1 mg/kg): 0.566 ± 0.156 h⁻¹
Kel ([5]; 0.5 mg/kg): 0.481 ± 0.058 h⁻¹
Kel ([5]; 2.5 mg/kg): 0.445 ± 0.054 h⁻¹
AUC(0-t) (in vivo [6]; 0.1 mg/kg): 125 ± 14.3 ng·h/mL
C0 (in vivo [6]; 0.1 mg/kg): 560 ± 181 ng/mL
Cmax (in vivo [6]; 0.1 mg/kg): 410 ± 90.5 ng/mL
Tmax (in vivo [6]; 0.1 mg/kg): 2.3 ± 0.948 min
Vd (in vivo [6]; 0.1 mg/kg): 0.385 ± 0.0711 L/kg
clearance (in vivo [6]; 0.1 mg/kg): 13.2 mL/min/kg
half-life (in vivo [6]; 0.1 mg/kg): 20.2 ± 2.52 min
AUC(0-t) (in vivo [6]; 0.3 mg/kg): 504 ± 56.6 ng·h/mL
C0 (in vivo [6]; 0.3 mg/kg): 2250 ± 463 ng/mL
Cmax (in vivo [6]; 0.3 mg/kg): 1570 ± 211 ng/mL
Tmax (in vivo [6]; 0.3 mg/kg): 2 min
Vd (in vivo [6]; 0.3 mg/kg): 0.342 ± 0.0363 L/kg
clearance (in vivo [6]; 0.3 mg/kg): 9.8 mL/min/kg
half-life (in vivo [6]; 0.3 mg/kg): 24.3 ± 3.3 min
AUC(0-t) (in vivo [6]; 1 mg/kg): 1800 ± 192 ng·h/mL
C0 (in vivo [6]; 1 mg/kg): 7680 ± 1740 ng/mL
Cmax (in vivo [6]; 1 mg/kg): 5320 ± 906 ng/mL
Tmax (in vivo [6]; 1 mg/kg): 2 min
Vd (in vivo [6]; 1 mg/kg): 0.5 ± 0.085 L/kg
clearance (in vivo [6]; 1 mg/kg): 9.28 mL/min/kg
half-life (in vivo [6]; 1 mg/kg): 37.2 ± 3.87 min
AUC(0-t) (in vivo [6]; 3 mg/kg): 5920 ± 508 ng·h/mL
C0 (in vivo [6]; 3 mg/kg): 24000 ± 2360 ng/mL
Cmax (in vivo [6]; 3 mg/kg): 17000 ± 1400 ng/mL
Tmax (in vivo [6]; 3 mg/kg): 2 min
Vd (in vivo [6]; 3 mg/kg): 0.645 ± 0.137 L/kg
clearance (in vivo [6]; 3 mg/kg): 8.48 mL/min/kg
half-life (in vivo [6]; 3 mg/kg): 52.8 ± 10.2 min
AUC(0-t) (in vivo [7]; 0.1 mg/kg): 348 ± 33.7 ng·h/mL
Cmax (in vivo [7]; 0.1 mg/kg): 320 ± 20.2 ng/mL
Tmax (in vivo [7]; 0.1 mg/kg): 30 min
Vd (in vivo [7]; 0.1 mg/kg): 0.564 ± 0.271 L/kg
clearance (in vivo [7]; 0.1 mg/kg): 4.75 mL/min/kg
half-life (in vivo [7]; 0.1 mg/kg): 82.8 ± 39.6 min
AUC(0-t) (in vivo [7]; 0.5 mg/kg): 1650 ± 209 ng·h/mL
Cmax (in vivo [7]; 0.5 mg/kg): 1500 ± 251 ng/mL
Tmax (in vivo [7]; 0.5 mg/kg): 30 min
Vd (in vivo [7]; 0.5 mg/kg): 0.642 ± 0.086 L/kg
clearance (in vivo [7]; 0.5 mg/kg): 5.12 mL/min/kg
half-life (in vivo [7]; 0.5 mg/kg): 87.6 ± 10.3 min
AUC(0-t) (in vivo [7]; 2.5 mg/kg): 8300 ± 1200 ng·h/mL
Cmax (in vivo [7]; 2.5 mg/kg): 7460 ± 1190 ng/mL
Tmax (in vivo [7]; 2.5 mg/kg): 30 min
Vd (in vivo [7]; 2.5 mg/kg): 0.691 ± 0.107 L/kg
clearance (in vivo [7]; 2.5 mg/kg): 5.08 mL/min/kg
half-life (in vivo [7]; 2.5 mg/kg): 94.8 ± 12 min

CC1=NN(c2ccccc2)C(=O)C1 [edaravone, reference compound]
Infarct volume ([3]; edaravone 6 mg/kg single iv 30 min after reperfusion): similar

apoE130‐149 (peptide)
IC50 of inhibition of α7‐nAChR current (electrophysiology); given only as the concentration used, close to the IC50 (α7-nAChR [8]): 500 nM

Ac-VSRRR-NH2 [CN‐105]
IC50 of inhibition of α7‐nAChR current (electrophysiology); given only as the concentration used, close to the IC50 (α7-nAChR [8]): 40 nM
